The values below come from US20220031709A1, “INHIBITION OF MICROSOMAL PROSTAGLANDIN E2 (PGE2) SYNTHASE-1 (MPGES-1)” (University of Kentucky Research Foundation, priority 2020, published 2022).

One data set has as its system JAK. Particulars: in vitro effect of PGE2; cited from earlier work.
The conditions of data set [1]: single IV dose in clinical trial: ceftriaxone 2 g, aztreonam 500 mg, cefotetan 1 g; read-out: Cmax in human plasma; cited from earlier work.
A further data set concerns the target T1, human mPGES-1 (Homo sapiens, UniProt O14684).
T1 sequence (O14684 1-152): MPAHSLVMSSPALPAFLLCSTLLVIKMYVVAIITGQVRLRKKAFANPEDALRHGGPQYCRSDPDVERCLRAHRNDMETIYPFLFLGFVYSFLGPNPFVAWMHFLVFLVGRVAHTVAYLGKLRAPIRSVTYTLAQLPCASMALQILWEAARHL
The experiment in a line: in vitro activity assay (ELISA) against human mPGES-1. The class given is biochemical. How it is done: The inhibitory activity of these drugs against human mPGES-1 was determined in vitro using the previously described in vitro activity procedure, an enzyme-linked immunosorbent assay (ELISA). (Ding et al., 2018a; Ding et al., 2018b; Zhou et al., 2017).
Background: In an ELISA, binding on a coated surface is turned into a signal by an enzyme label.

The test system of data set [2] is carrageenan-induced hyperalgesia. As to the kind of experiment: carrageenan-induced hyperalgesia, pre-treatment (paw withdrawal latency). Conditions: for effect on carrageenan-induced hyperalgesia (PWL): IP 1 h before 1% carrageenan, ceftriaxone 200 mg/kg, cefotetan 100 mg/kg, oxycodone 5 mg/kg. The format is in vivo, wild-type rats.
Data set [3] deals with carrageenan-induced paw edema. The experiment in a line: carrageenan-induced paw edema, pre-treatment (percent increase in paw volume). The format is in vivo, wild-type rats. Particulars: IP 1 h before 1% carrageenan; ceftriaxone 200 mg/kg, cefotetan 100 mg/kg, oxycodone 5 mg/kg.
The test system of data set [4] is carrageenan-induced hyperalgesia. As to the kind of experiment: post-treatment model of carrageenan-induced hyperalgesia. Conditions: for pain relief (PWL), post-treatment: treated IP 23 h after carrageenan, ceftriaxone 100 or 200 mg/kg, cefotetan 50 or 100 mg/kg, oxycodone 5 mg/kg. The class given is in vivo, wild-type rats. How it is done: To better model the clinical treatment of pain, ceftriaxone (FIG. 4) and cefotetan (FIG. 5) were also tested in a post-treatment model of carrageenan-induced hyperalgesia. Rats were first injected with carrageenan to induce the hyperalgesia/pain.

In data set [5] the test system is CFA-induced knee joint arthritis. As to the kind of experiment: CFA (adjuvant)-induced knee joint arthritis, arthritis score. The class given is in vivo, wild-type rats. Particulars: IP daily on Days 3 to 6 after CFA on Day 0. As to the method: FIG. 6 illustrates the anti-inflammatory and analgesic effects (in terms of arthritis score) of ceftriaxone and cefotetan on CFA-induced knee joint arthritis in wild-type rats (n=10 for each group). CFA was injected to the knee joint on Day 0. Drug or vehicle (control) was injected (IP) daily on Days 3 to 6. Arthritis score (mean spontaneous pain rating) measured on Days 0 to 6, 8, 10, and 12.
Ceftriaxone and cefotetan were further tested using an adjuvant-induced knee joint arthritis model described by Hammell et al. 2016. Using this one-week knee joint arthritis model, CFA was injected to the knee joint on Day 0 to induce chronic arthritis and associated pain, followed by daily PWL and arthritis score (mean spontaneous pain rating) assessments from Day 0 to Day 7.
Daily treatment with ceftriaxone and cefotetan or vehicle (control group) started on Day 3 (after the arthritis score assessment on that day) and continued until Day 6. There were a total of four doses of the respective treatment from Day 3 to Day 6. […] On Day 3, the arthritis score reached the peak (reflecting the most severe arthritis), which is consistent with previous observations reported for the control group. (Hammell et al., 2016).

The subject of another data set is SARS-CoV-2. The format is cell-based. Conditions: cell culture; data not shown.
Another data set deals with AngII-induced AAA. The experiment in a line: angiotensin (AngII)-induced abdominal aortic aneurysm model. The format is in vivo, ApoE-deficient mice. Particulars: AngII minipump 28 days; ceftriaxone given beginning on Day 5. How it is done:
FIG. 7 illustrates the anti-inflammatory effects of ceftriaxone in terms of maximum aortic diameter.
Ceftriaxone was also tested in treatment of angiotensin (AngII)-induced AAA model. This experiment was performed using ApoE-deficient mice. AngII (with a minipump to continuously release the AngII solution within 28 days) was used to induce AAA in this strain of mice beginning Day 0 for all animals in both control and intervention groups.
The AAA was characterized by the maximum aortic diameter […] detected by the ultrasound method. Ceftriaxone was given beginning on Day 5 for intervention.

For data set [6], the system named is proinflammatory cytokines (including TNF-α), GLT-1. Particulars: animal models of inflammation and pain/hyperalgesia; cited from earlier work.
For data set [7], the system named is chronic inflammatory arthritis. Conditions: placebo-controlled, double-blind study; cited from earlier work.
The conditions of data set [8]: mouse, in vivo; cited from earlier work.

Regarding `N#C/C(=C/c1ccc(O)c(O)c1)C(=O)NCc1ccccc1` [AG490], the “block of PGE2-induced inflammatory hyperalgesia effect” value in the data set with JAK was “able to block this in vitro effect of PGE2”.
`C[C@H]1[C@H](NC(=O)/C(=N\OC(C)(C)C(=O)O)c2csc(N)n2)C(=O)N1S(=O)(=O)O` [aztreonam]: the Cmax in [1] was 129 µM.
Molecule `CO[C@@]1(NC(=O)C2SC(=C(C(N)=O)C(=O)O)S2)C(=O)N2C(C(=O)O)=C(CSc3nnnn3C)CS[C@@H]21` (stereo partly shown) [cefotetan] showed an IC50 at human mPGES-1 of 13.5 µM. For the same molecule, the “effect on carrageenan-induced hyperalgesia (PWL)” value (“effect … (PWL)” below) in data set [2] is “has the desired anti-inflammatory and analgesic effects”. Also, in [3], the “effect on carrageenan-induced paw edema (percent increase in paw volume)” value is “has the desired anti-inflammatory and analgesic effects”. Besides, the “pain relief (PWL), post-treatment” value in [4] was “significantly, and dose-dependently, relieved the pain”. Besides, in data set [5], the “arthritis score (mean spontaneous pain rating)” value was “mean spontaneous pain rating was reduced”. For the same molecule, the Cmax in data set [1] was 440 µM.
As to `CO/N=C(\C(=O)N[C@@H]1C(=O)N2C(C(=O)O)=C(CSc3nc(=O)c(=O)[nH]n3C)CS[C@H]12)c1csc(N)n1` [ceftriaxone], in the data set with SARS-CoV-2, the “cytoprotective activity against SARS-CoV-2 infection” value is “cytoprotective against SARS-CoV-2 infection”. Further, in [2], the “effect … (PWL)” value is “completely suppressed carrageenan-induced hyperalgesia”. Moreover, in data set [3], the “effect on carrageenan-induced paw edema (percent increase in paw volume)” value is listed as “significantly decreased the percent increase in the paw volume”. The “pain relief (PWL), post-treatment” value in [4] was “significantly, and dose-dependently, relieved the pain”. For the same molecule, in data set [5], the “arthritis score (mean spontaneous pain rating)” value is “mean spontaneous pain rating was reduced”. Further, the “progression of AAA (maximum aortic diameter, ultrasound)” value with AngII-induced AAA is “significantly stopped the progression of AAA, and it even reversed the AAA”. The Cmax in data set [1] is 463 µM. Further, the “effect on proinflammatory cytokines and GLT-1” value in data set [6] was “effectively attenuated the proinflammatory cytokines (including TNF-α) and reversed the downregulation of GLT-1”. For the same molecule, the “clinical efficacy in chronic inflammatory arthritis” value in data set [7] is recorded as “efficacious in treatment of chronic inflammatory arthritis”.
Regarding `Cc1ccc(-c2cc(C(F)(F)F)nn2-c2ccc(S(N)(=O)=O)cc2)cc1` [celecoxib], in data set [8], the toxicity in mice entry is “very toxic for stomach and other issues of mice, and bleeding ulcer was observed at gastric mucosa”.
Take `COc1ccc2c3c1O[C@H]1C(=O)CC[C@@]4(O)[C@@H](C2)N(C)CC[C@]314` [oxycodone]: the “effect … (PWL)” value in [2] was “effectively relieved the pain within six hours after oxycodone injection”. The “pain (PWL) at 23 h” value in data set [2] (oxycodone 5 mg/kg IP pre-treatment, 23 h (next day)) is listed as “still significant pain at 23 h”. The PWL peak time in data set [4] (oxycodone 5 mg/kg IP, post-treatment) was determined as 1 h. The “pain relief (PWL), post-treatment” value in data set [4] is reported as “significantly relieved the pain”.

For orientation: Cmax means the highest concentration seen after dosing. As a reminder, the IC50 is the point on the concentration scale where inhibition reaches its midpoint. A high value points to weaker potency in that assay.
